Molecular target: IDO (Homo sapiens (Human), UniProt P14902)
Assay: Kynurenine assay in IFN-γ-stimulated Hela cells
Type: cell-based
Details: 20 h, read-out: Hela Kyurenine (IC50)
Experimental: Reagents: Hela cells (ATCC, CCL-2)
IFNg (R&D, 28-IF-100)—resuspend at 10 ug/mL in PBS with 0.1% BSA 30% TCA
Ehrlich reagent (2% w/v p-dimethylaminobenzaldehyde in glacial acetic acid)
Cell Lines and Culture Conditions
Hela cancer cell lines were acquired from the American Type Culture Collection. Cells were maintained in phenol red free-RPMI1640 medium containing high glucose and L-glutamine (Invitrogen) supplemented with 10% fetal bovine serum (FBS; Invitrogen). Cell cultures were incubated at 37° C., 5% CO2, and 100% humidity.
Cell Treatment and Kynurenine Assay
Hela cells were seeded on 96-well plates (40,000 cells per well) and allowed to adhere for 5-6 hours. Cells were then treated with vehicle (DMSO) or with IDO inhibitor at a top dose of 30 μM (3-fold dilution all the way down to 1.5 nM). A final concentration of 100 ng/mL of human recombinant IFN-γ (R&D, 28-IF-100) was immediately added to the cells to stimulate IDO expression. Treated cells were then incubated for 20 hours at 37° C. At the end of the 20 h incubation, reactions were terminated by the addition of 30% TCA to each well. Plates were incubated for 30 minutes at 50° C. to hydrolyze N-formylkynurenine to kynurenine. Cells were centrifuged 10 minutes at 2400 rpm. 100 ul of supernatants were transferred to new 96 flat well plates and mixed with 100 ul Ehrlich reagent. The resulting solution was incubated 10 minutes at RT. Absorbance at 490 nm was read using Spectra Max 384 (Molecular Devices).

IDO, sequence (P14902 whole entry): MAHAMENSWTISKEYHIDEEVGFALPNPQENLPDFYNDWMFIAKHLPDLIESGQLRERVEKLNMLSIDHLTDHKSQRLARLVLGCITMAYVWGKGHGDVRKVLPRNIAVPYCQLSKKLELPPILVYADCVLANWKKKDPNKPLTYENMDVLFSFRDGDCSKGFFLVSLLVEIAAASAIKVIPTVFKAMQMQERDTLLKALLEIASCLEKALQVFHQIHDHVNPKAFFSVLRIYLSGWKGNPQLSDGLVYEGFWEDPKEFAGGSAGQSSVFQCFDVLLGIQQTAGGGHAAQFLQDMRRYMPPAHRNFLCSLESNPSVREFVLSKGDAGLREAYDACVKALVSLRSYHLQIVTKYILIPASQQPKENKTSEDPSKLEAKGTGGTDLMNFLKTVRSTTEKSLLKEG

Row | Compound | IC50
1 | 4′-(2-(tert-butyl)phenoxy)-3′-(3-(4-chlorophenyl)ureido)-4-methoxy-[1,1′-biphenyl]-3-carboxylic acid [Example 106] | 470 nM
2 | 4′-(2-(tert-butyl)phenoxy)-3′-(3-(4-fluorophenyl)ureido)-4-methoxy-[1,1′-biphenyl]-3-carboxylic acid [Example 107] | 320 nM
3 | COc1ccc(-c2ccc(O[C@@H]3CCCC[C@H]3C)c(NC(=O)Nc3ccc(C)cc3)c2)cc1C(=O)O (relative stereo) [Example 134, 4-methoxy-4′-((trans)-2-methylcyclohexyloxy)-3′-(3-p-tolylureido)biphenyl-3-carboxylic acid] | 1390 nM
4 | COc1ccc(-c2ccc(O[C@@H]3CCCC[C@H]3C)c(NC(=O)Nc3ccccc3C)c2)cc1C(=O)O (relative stereo) [Example 137, 4-methoxy-4′-((trans)-2-methylcyclohexyloxy)-3′-(3-o-tolylureido)biphenyl-3-carboxylic acid] | 2430 nM
5 | Cc1ccc(NC(=O)Nc2cc(-c3ccccc3-c3nnn[nH]3)ccc2Oc2ccccc2C(C)(C)C)cc1 [Example 4, 1-(4-(2-tert-Butylphenoxy)-2′-(1H-tetrazol-5-yl)biphenyl-3-yl)-3-p-tolylurea] | 30 nM
6 | Cc1ccc(NC(=O)Nc2cc(-c3ccccc3C(=O)NS(C)(=O)=O)ccc2Oc2ccccc2C(C)(C)C)cc1 [Example 6, 4′-(2-tert-Butylphenoxy)-N-(methylsulfonyl)-3′-(3-p-tolylureido)biphenyl-2-carboxamide] | 730 nM
7 | COc1ccc(-c2ccc(Oc3ccccc3C(C)(C)C)c(NC(=O)Nc3ccc(C)cc3)c2)cc1C(=O)NS(C)(=O)=O [Example 41, 4′-(2-tert-butylphenoxy)-4-methoxy-N-(methylsulfonyl)-3′-(3-p-tolylureido)biphenyl-3-carboxamide] | 430 nM
8 | COc1ccc(-c2ccc(Oc3ccccc3C(C)(C)C)c(NC(=O)Nc3ccccc3C)c2)cc1C(=O)O [Example 44, 4′-(2-tert-butylphenoxy)-4-methoxy-3′-(3-o-tolylureido)biphenyl-3-carboxylic acid] | 490 nM
9 | CCc1ccccc1Oc1ccc(-c2ccc(OC)c(C(=O)O)c2)cc1NC(=O)Nc1ccc(C)cc1 [Example 47, 4′-(2-ethylphenoxy)-4-methoxy-3′-(3-p-tolylureido)biphenyl-3-carboxylic acid] | 540 nM
10 | CCc1ccccc1Oc1ccc(-c2ccc(OC)c(C(=O)O)c2)cc1NC(=O)Nc1ccc(C(F)(F)F)cc1 [Example 48, 4′-(2-ethylphenoxy)-4-methoxy-3′-(3-(4-(trifluoromethyl)phenyl)ureido)biphenyl-3-carboxylic acid] | 1230 nM
11 | COc1ccc(-c2ccc(Oc3ccccc3Cl)c(NC(=O)Nc3cccc(C)c3)c2)cc1C(=O)O [Example 50, 4′-(2-chlorophenoxy)-4-methoxy-3′-(3-m-tolylureido)biphenyl-3-carboxylic acid] | 900 nM
12 | COc1ccc(-c2ccc(Oc3ccccc3Cl)c(NC(=O)Nc3ccc(C)cc3)c2)cc1C(=O)O [Example 51, 4′-(2-chlorophenoxy)-4-methoxy-3′-(3-p-tolylureido)biphenyl-3-carboxylic acid] | 830 nM
13 | COc1ccc(-c2ccc(Oc3ccccc3Cl)c(NC(=O)Nc3ccccc3C(F)(F)F)c2)cc1C(=O)O [Example 52, 4′-(2-chlorophenoxy)-4-methoxy-3′-(3-(2-(trifluoromethyl)phenyl)ureido)biphenyl-3-carboxylic acid] | 1270 nM
14 | COc1ccc(-c2ccc(Oc3ccccc3Cl)c(NC(=O)Nc3ccccc3C)c2)cc1C(=O)O [Example 53, 4′-(2-chlorophenoxy)-4-methoxy-3′-(3-o-tolylureido)biphenyl-3-carboxylic acid] | 2180 nM
15 | CCc1ccccc1Oc1ccc(-c2ccc(OC)c(C(=O)O)c2)cc1NC(=O)Nc1ccccc1Cl [Example 55, 3′-(3-(2-chlorophenyl)ureido)-4′-(2-ethylphenoxy)-4-methoxybiphenyl-3-carboxylic acid] | 110 nM
16 | CCc1ccccc1Oc1ccc(-c2ccc(OC)c(C(=O)O)c2)cc1NC(=O)Nc1ccccc1C [Example 56, 4′-(2-ethylphenoxy)-4-methoxy-3′-(3-o-tolylureido)biphenyl-3-carboxylic acid] | 130 nM
17 | COc1ccc(-c2ccc(Oc3c(C)cccc3C(C)(C)C)c(NC(=O)Nc3ccccc3C)c2)cc1C(=O)O [Example 59, 4′-(2-tert-butyl-6-methylphenoxy)-4-methoxy-3′-(3-o-tolylureido)biphenyl-3-carboxylic acid] | 880 nM

Row | Compound | IC50
18 | COc1ccc(-c2ccc(Oc3c(C)cccc3C(C)(C)C)c(NC(=O)Nc3ccc(C)cc3)c2)cc1C(=O)O [Example 61, 4′-(2-tert-butyl-6-methylphenoxy)-4-methoxy-3′-(3-p-tolylureido)biphenyl-3-carboxylic acid] | 310 nM
19 | CCc1ccc(NC(=O)Nc2cc(-c3ccc(OC)c(C(=O)O)c3)ccc2Oc2ccccc2C(C)(C)C)cc1 [Example 67, 4′-(2-tert-butylphenoxy)-3′-(3-(4-ethylphenyl)ureido)-4-methoxybiphenyl-3-carboxylic acid] | 580 nM
20 | COc1ccccc1Oc1ccc(-c2ccc(OC)c(C(=O)O)c2)cc1NC(=O)Nc1ccccc1Cl [Example 68, 3′-(3-(2-chlorophenyl)ureido)-4-methoxy-4′-(2-methoxyphenoxy)biphenyl-3-carboxylic acid] | 490 nM
21 | COc1ccc(-c2ccc(Oc3ccccc3C)c(NC(=O)Nc3cccc(C)c3)c2)cc1C(=O)O [Example 70, 4-methoxy-4′-(o-tolyloxy)-3′-(3-m-tolylureido)biphenyl-3-carboxylic acid] | 390 nM
22 | COc1ccc(-c2ccc(Oc3ccccc3C)c(NC(=O)Nc3ccccc3Cl)c2)cc1C(=O)O [Example 71, 3′-(3-(2-chlorophenyl)ureido)-4-methoxy-4′-(o-tolyloxy)biphenyl-3-carboxylic acid] | 180 nM
23 | COc1ccc(-c2ccc(Oc3ccccc3C)c(NC(=O)Nc3ccccc3C)c2)cc1C(=O)O [Example 72, 4-methoxy-4′-(o-tolyloxy)-3′-(3-o-tolylureido)biphenyl-3-carboxylic acid] | 380 nM
24 | COc1ccc(-c2ccc(Oc3ccccc3C(C)(C)C)c(NC(=O)Nc3ccccc3)c2)cc1C(=O)O [Example 78, 4′-(2-(tert-butyl)phenoxy)-4-methoxy-3′-(3-phenylureido)-[1,1′-biphenyl]-3-carboxylic acid] | 80 nM
25 | COc1ccc(-c2ccc(Oc3ccccc3C(C)(C)C)c(NC(=O)Nc3c(F)cccc3F)c2)cc1C(=O)O [Example 80, 4′-(2-(tert-butyl)phenoxy)-3′-(3-(2,6-difluorophenyl)ureido)-4-methoxy-[1,1′-biphenyl]-3-carboxylic acid] | 130 nM
26 | COc1ccc(-c2ccc(Oc3ccccc3C(C)(C)C)c(NC(=O)Nc3c(Cl)cccc3Cl)c2)cc1C(=O)O [Example 82, 4′-(2-(tert-butyl)phenoxy)-3′-(3-(2,6-dichlorophenyl)ureido)-4-methoxy-[1,1′-biphenyl]-3-carboxylic acid] | 840 nM
27 | COc1ccc(-c2ccc(Oc3ccccc3C(C)(C)C)c(NC(=O)Nc3cccc(F)c3)c2)cc1C(=O)O [Example 84, 4′-(2-(tert-butyl)phenoxy)-3′-(3-(3-fluorophenyl)ureido)-4-methoxy-[1,1′-biphenyl]-3-carboxylic acid] | 160 nM
28 | COc1ccc(-c2ccc(Oc3ccccc3C(C)(C)C)c(NC(=O)Nc3cccc(Cl)c3)c2)cc1C(=O)O [Example 85, 4′-(2-(tert-butyl)phenoxy)-3′-(3-(3-chlorophenyl)ureido)-4-methoxy-[1,1′-biphenyl]-3-carboxylic acid] | 110 nM
29 | COc1cccc(NC(=O)Nc2cc(-c3ccc(OC)c(C(=O)O)c3)ccc2Oc2ccccc2C(C)(C)C)c1 [Example 86, 4′-(2-(tert-butyl)phenoxy)-3′-(3-(3-methoxyphenyl)ureido)-4-methoxy-[1,1′-biphenyl]-3-carboxylic acid] | 230 nM
30 | COc1ccc(NC(=O)Nc2cc(-c3ccc(OC)c(C(=O)O)c3)ccc2Oc2ccccc2C(C)(C)C)cc1 [Example 87, 4′-(2-(tert-butyl)phenoxy)-3′-(3-(4-methoxyphenyl)ureido)-4-methoxy-[1,1′-biphenyl]-3-carboxylic acid] | 280 nM
31 | COc1ccc(-c2ccc(Oc3ccccc3C(C)(C)C)c(NC(=O)NC(C)(C)C)c2)cc1C(=O)O [Example 88, 4′-(2-(tert-butyl)phenoxy)-3′-(3-(tert-butyl)ureido)-4-methoxy-[1,1′-biphenyl]-3-carboxylic acid] | 130 nM
32 | CCCNC(=O)Nc1cc(-c2ccc(OC)c(C(=O)O)c2)ccc1Oc1ccccc1C(C)(C)C [Example 89, 4′-(2-(tert-butyl)phenoxy)-3′-(3-(n-propyl)ureido)-4-methoxy-[1,1′-biphenyl]-3-carboxylic acid] | 120 nM
33 | CCCCNC(=O)Nc1cc(-c2ccc(OC)c(C(=O)O)c2)ccc1Oc1ccccc1C(C)(C)C [Example 90, 4′-(2-(tert-butyl)phenoxy)-3′-(3-(n-butyl)ureido)-4-methoxy-[1,1′-biphenyl]-3-carboxylic acid] | 260 nM
